From patent publication EP0626016B1, “[…] […]” (BRITISH TECHNOLOGY GROUP LIMITED, priority 1992, dated 1993)
Where “and” joins values, the source holds several entries; their conditions need not be identical. Identical values can stand only once. Like-named read-outs stand apart in the source and are kept apart here.

Biological target: T1, HRP Type VIA (Armoracia rusticana, UniProt P00433)
T1 sequence (P00433 31-338): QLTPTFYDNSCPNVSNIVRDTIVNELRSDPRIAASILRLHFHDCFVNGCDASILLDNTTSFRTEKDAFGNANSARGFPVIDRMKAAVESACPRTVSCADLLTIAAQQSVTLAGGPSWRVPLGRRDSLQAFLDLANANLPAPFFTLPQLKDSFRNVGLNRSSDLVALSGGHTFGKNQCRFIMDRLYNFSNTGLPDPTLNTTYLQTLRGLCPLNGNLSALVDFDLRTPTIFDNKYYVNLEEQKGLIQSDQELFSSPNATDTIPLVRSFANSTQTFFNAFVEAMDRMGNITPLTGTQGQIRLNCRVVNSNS

[1] = 0.01 mg/ml, 10µl test compound, control value in brackets not reported
[2] = 0.1 mg/ml, 10µl test compound, control value in brackets not reported
[3] = 1 mg/ml, 10µl test compound, control value in brackets not reported

| Compound | (a) Decrease in background (without HRP with test cpd.) (0.01 mg/ml, 10µl test compound) | (b) Increase in signal (with HRP, with test cpd.) (0.01 mg/ml, 10µl test compound) | (c) Increase in signal: background ratio (0.01 mg/ml, 10µl test compound) | (d) Signal: Background: ratio (control = with no enhancer) [1] | (a) Decrease in background (without HRP with test cpd.) (0.1 mg/ml, 10µl test compound) | (b) Increase in signal (with HRP, with test cpd.) (0.1 mg/ml, 10µl test compound) | (c) Increase in signal: background ratio (0.1 mg/ml, 10µl test compound) | (d) Signal: Background: ratio (control = with no enhancer) [2] | (a) Decrease in background (without HRP with test cpd.) (1 mg/ml, 10µl test compound) | (b) Increase in signal (with HRP, with test cpd.) (1 mg/ml, 10µl test compound) | (c) Increase in signal: background ratio (1 mg/ml, 10µl test compound) | (d) Signal: Background: ratio (control = with no enhancer) [3] | (a) Decrease in background (without HRP with test cpd.) | (b) Increase in signal (with HRP, with test cpd.) | (c) Increase in signal: background ratio | (d) Signal: Background: ratio (control = with no enhancer) |
| --- | --- | --- | --- | --- | --- | --- | --- | --- | --- | --- | --- | --- | --- | --- | --- | --- |
| Cc1ccc(B(O)O)cc1 [Compound 1034, 4-methylphenylboronic acid] | Y | N | Y (Column (c) shows whether there was an increase in the signal:background ratio by over 25% of the control value (Y = yes) | 3.6 (1.9) | Y | Y | Y (Column (c) shows whether there was an increase in the signal:background ratio by over 25% of the control value (Y = yes) | 41.2 (2.9) | Y | N | N (N = no) |  |  |  |  |  |
| OB(O)c1ccc(B(O)O)cc1 [Compound 1035, 1,4-phenyldiboronic acid] | Y | N | N (N = no) | 2.1 (2.0) | Y | N | N (N = no) |  | Y | N | N (N = no) |  |  |  |  |  |
| OB(O)c1ccc(-c2ccc(B(O)O)cc2)cc1 [Compound 1037, 4,4'-bis(phenylboronic acid)] | Y | Y | Y (Column (c) shows whether there was an increase in the signal:background ratio by over 25% of the control value (Y = yes) | 35.5 (1.9) | Y | Y | Y (Column (c) shows whether there was an increase in the signal:background ratio by over 25% of the control value (Y = yes) | 503.3 (2.9) | Y | N | N (N = no) |  |  |  |  |  |
| CCCCOB(OCCCC)c1ccc(-c2ccc(Br)cc2)cc1 [Compound 1038, 4-(4'-bromophenyl)phenyl-di-n-butoxyborane] | Y Y | Y Y | Y Y (Column (c) shows whether there was an increase in the signal:background ratio by over 25% of the control value (Y = yes) | 442.2 | Y Y | Y Y | Y Y (Column (c) shows whether there was an increase in the signal:background ratio by over 25% of the control value (Y = yes) | 2118.5 | Y | Y | Y (Column (c) shows whether there was an increase in the signal:background ratio by over 25% of the control value (Y = yes) | 903.8 (4.5) |  |  |  |  |
| Clc1cc(Cl)c(OB(Oc2cc(Cl)c(Cl)cc2Cl)c2cc(Cl)c(Cl)cc2Cl)cc1Cl [Compound 1039, di-(3',4',6'-trichlorophenoxy)-3,4,6-trichlorophenylborane] |  |  |  |  |  |  |  |  |  |  |  |  | Y | N | N (key: column (a) shows whether the test compound lowered the light output from the luminol-hydrogen peroxide solution (Y = yes; N = no) | 3.4 (2.9) |
| Clc1cc(Cl)cc(OB(Oc2cc(Cl)cc(Cl)c2)c2cc(Cl)cc(Cl)c2)c1 [Compound 1040, di-(3',5'-dichlorophenoxy)-3,5-dichlorophenylborane] |  |  |  |  |  |  |  |  |  |  |  |  | Y | N |  | 4.7 (4.5) and 3.9 (2.9) |
| Clc1ccc(OB(Oc2ccc(Cl)cc2)c2ccc(Cl)cc2)cc1 [Compound 1041, 4-chlorophenyl-di-(4'-chlorophenoxy)borane] | Y | Y | Y (Column (c) shows whether there was an increase in the signal:background ratio by over 25% of the control value (Y = yes) | 6.3 (1.9) | Y | Y | Y (Column (c) shows whether there was an increase in the signal:background ratio by over 25% of the control value (Y = yes) | 360.2 (2.8) | Y | Y | Y (Column (c) shows whether there was an increase in the signal:background ratio by over 25% of the control value (Y = yes) | 2606.2(4.5) |  |  |  |  |
